Patent publication US7531320B2, “Modulation of β-catenin/TCF-activated transcription” (priority 2003, dated 2009)

Target: T1, p300/β-catenin complex (Homo sapiens, UniProt Q09472)
T1 construct: endogenous in cells; host or cells: SW480
Assay: Co-immunoprecipitation of β-catenin with p300 in SW480 cells
Assay type: cell-based
Conditions: SW480 cells, 5 or 10 μM, 24 hours
Description: FIG. 3. COMPOUND 1 disrupts the β-catenin/CBP complex but not the p300/β-catenin complex. • A. Full-length Xenopus laevis β-catenin (1.1, 2.2, and 3.3 μg) or murine CBP (0.14, 0.28, 0.55, 1.1, and 2.2 μg) plasmids were cotransfected in SW480 cells along with the β-catenin/TCF (1.1 μg) reporter gene construct. Empty pcDNA3 vector was used to equalize the amount of DNA used in each reaction. Dual luciferase assays were performed 24 hours post COMPOUND 1 treatment. All experiments were performed in duplicate and values plotted as means +/−standard deviation. • B. COMPOUND 1 competes with β-catenin for CBP. SW480 cells were treated with 5 or 10 μM of COMPOUND 1 or control (0.5% DMSO). 24 hours post treatment, lysates were incubated with beads coated with either control the antibody, or anti-CBP, or anti-p300 antibodies. Co-immunoprecipitated proteins were subjected to gel electrophoresis and immunoblotting using anti-β-catenin antibodies. The arrows point to the immunoprecipitated β-catenin (doublets). • C. CBP (1-111) is the minimal region of interaction with β-catenin. SW480 cells transfected with a CBP deletion series were subjected to immunoprecipitation using anti-β-catenin antibodies coated on Protein A-agarose beads. The immune complexes were washed and subjected to gel electrophoresis followed by immunoblotting using anti-His antibodies. […]

T1 sequence (Q09472 2-2414, one chain of several): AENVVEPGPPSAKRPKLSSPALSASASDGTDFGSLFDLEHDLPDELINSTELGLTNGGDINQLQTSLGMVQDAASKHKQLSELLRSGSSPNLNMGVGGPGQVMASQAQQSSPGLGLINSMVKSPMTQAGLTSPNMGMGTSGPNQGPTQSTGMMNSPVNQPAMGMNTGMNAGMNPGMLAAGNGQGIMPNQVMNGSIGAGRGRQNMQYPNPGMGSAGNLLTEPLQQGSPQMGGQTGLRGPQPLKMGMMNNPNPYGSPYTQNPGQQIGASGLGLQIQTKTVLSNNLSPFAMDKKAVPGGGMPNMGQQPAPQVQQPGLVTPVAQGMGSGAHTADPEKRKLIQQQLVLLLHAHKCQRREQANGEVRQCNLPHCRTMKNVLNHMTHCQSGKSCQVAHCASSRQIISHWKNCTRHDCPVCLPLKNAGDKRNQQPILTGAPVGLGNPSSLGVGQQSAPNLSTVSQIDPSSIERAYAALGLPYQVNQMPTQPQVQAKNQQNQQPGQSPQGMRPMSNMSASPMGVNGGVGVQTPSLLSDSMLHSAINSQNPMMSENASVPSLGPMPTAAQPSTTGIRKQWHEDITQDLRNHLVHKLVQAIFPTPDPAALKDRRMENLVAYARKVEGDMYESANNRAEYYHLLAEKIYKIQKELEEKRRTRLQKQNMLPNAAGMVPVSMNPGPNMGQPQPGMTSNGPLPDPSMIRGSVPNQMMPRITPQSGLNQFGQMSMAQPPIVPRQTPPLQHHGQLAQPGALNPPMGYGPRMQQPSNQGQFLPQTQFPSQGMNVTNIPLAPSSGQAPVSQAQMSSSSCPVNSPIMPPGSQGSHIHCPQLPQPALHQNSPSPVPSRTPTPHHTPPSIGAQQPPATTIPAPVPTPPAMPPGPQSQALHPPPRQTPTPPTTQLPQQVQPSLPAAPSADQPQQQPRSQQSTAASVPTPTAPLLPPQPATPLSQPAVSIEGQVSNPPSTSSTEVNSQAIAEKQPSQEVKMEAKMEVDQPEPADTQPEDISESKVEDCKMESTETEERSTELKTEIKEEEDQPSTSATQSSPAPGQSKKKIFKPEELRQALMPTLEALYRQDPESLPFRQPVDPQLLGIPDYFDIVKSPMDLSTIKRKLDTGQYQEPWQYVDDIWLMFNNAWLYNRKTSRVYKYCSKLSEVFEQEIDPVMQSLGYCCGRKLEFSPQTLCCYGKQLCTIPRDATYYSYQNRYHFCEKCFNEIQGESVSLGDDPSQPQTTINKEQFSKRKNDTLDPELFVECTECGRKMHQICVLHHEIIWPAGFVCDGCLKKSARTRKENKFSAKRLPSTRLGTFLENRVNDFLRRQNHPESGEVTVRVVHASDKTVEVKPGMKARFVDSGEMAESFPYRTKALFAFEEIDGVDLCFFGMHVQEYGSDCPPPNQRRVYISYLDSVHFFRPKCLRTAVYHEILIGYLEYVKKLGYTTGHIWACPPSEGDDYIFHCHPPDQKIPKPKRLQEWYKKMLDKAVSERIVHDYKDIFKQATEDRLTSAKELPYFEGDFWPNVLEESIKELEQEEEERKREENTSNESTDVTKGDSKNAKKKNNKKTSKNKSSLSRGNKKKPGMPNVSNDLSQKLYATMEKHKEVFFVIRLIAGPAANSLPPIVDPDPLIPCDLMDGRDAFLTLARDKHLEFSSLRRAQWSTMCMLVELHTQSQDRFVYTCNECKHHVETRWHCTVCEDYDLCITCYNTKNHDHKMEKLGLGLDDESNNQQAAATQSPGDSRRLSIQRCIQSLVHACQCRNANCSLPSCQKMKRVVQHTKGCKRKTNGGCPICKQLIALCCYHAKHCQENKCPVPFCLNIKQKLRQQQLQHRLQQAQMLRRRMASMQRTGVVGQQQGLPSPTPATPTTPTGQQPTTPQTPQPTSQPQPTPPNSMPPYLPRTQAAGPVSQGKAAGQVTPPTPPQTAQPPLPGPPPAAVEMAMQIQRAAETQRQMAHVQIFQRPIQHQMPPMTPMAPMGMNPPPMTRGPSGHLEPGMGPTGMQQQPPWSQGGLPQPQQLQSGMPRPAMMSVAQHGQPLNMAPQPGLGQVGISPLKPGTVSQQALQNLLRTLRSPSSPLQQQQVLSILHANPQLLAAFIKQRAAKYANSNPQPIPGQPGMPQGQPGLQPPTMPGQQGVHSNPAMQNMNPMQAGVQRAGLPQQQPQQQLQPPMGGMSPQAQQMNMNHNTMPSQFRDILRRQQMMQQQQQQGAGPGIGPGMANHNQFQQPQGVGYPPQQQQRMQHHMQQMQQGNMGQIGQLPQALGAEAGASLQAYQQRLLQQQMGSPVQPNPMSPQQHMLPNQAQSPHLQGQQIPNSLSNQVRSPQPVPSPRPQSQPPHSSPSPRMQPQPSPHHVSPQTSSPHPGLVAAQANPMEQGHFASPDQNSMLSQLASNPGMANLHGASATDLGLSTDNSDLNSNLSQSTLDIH

## O=C1C(Cc2ccc(O)cc2)N2C(=O)CCN(C(=O)NCc3ccccc3)C2CN1Cc1cccc2ccccc12 (stereo not shown) [COMPOUND 1]
  Binding of β-catenin to p300 (immunoprecipitation): did not interfere
